Where “and” joins values, the source holds several entries; their conditions need not be identical. Equal entries are not always repeated.

The test system of assay [1] is radish cotyledons. Description: Radish cotyledon bioassay (kinetin-induced expansion growth and chlorophyll content). It is filed as in vivo, Raphanus sativus L. cv. Cherry-Belle. Conditions: kinetin 0.2 mg/l, 72 hours; for Change in fresh weight: n = 9.
The subject of a further assay is Bolivian Rainbow Peppers. Description: Color impact on hot pepper (greenhouse). It is filed as in vivo. The procedure: The color impact of NALPE-2 on hot pepper. Potted ornamental peppers (var. Bolivian Rainbow Peppers) in laboratory greenhouses located in Middleton, Wis. were treated with NALPE-2 (50 mg/L). […] 40-50 fruits were tagged and labeled. The pepper color stage was noted prior to application and two plants were used. Ambient conditions in the greenhouse at the time of application were about 80° F. and 70% relative humidity. Drying time was approximately 0.5 hr. After 14 days the peppers were harvested and color group sorting was performed.

A further assay has as its system radish hypocotyls. The experiment in a line: Radish hypocotyl bioassay for anthocyanins. It is filed as in vivo, Raphanus sativus L. cv. Cherry-Belle. The protocol: Radish hypocotyl bioassay for anthocyanins. An anthocyanin bioassay was developed using intact germinated seeds of radish (Raphanus sativus L. cv. Cherry-Belle). Seeds of radish were germinated in darkness at 25° C. for 40 hours in Petri dishes containing filter paper wetted with distilled water. Whole seedlings were transferred to Petri dishes containing the test solutions in potassium phosphate buffer (2 mM, pH 6.0 containing 0.2 mg/L kinetin to simulate natural growing conditions). The seedlings were incubated under bright light for 28 h prior to extraction of hypocotyl tissue and spectrophotometric quantification of anthocyanins. Anthocyanin content was determined spectrophotometrically after tissue extraction into 99 parts ethanol and 1 part concentrated HCl. The absorbance of the acidic ethanol fraction was measured at 510 nm and the final anthocyanin content calculated using an extinction coefficient of 31.76 mmol cm^−1 for raphanisuns (Ishikura N. and Hayashi K. Chromatographic separation and characterization of the component anthocyanins in radish root. Botanical Magazine Tokyo 76:6-13, 1963, which is herein incorporated by reference in its entirety).

Assay [2] has as its system Hydroponic tomatoes (var. Trust). The experiment in a line: Color impact on tomato (greenhouse spray). The class given is in vivo. The procedure:
The color impact of NALPE-2 on tomato. Hydroponic tomatoes (var. Trust) in a commercial greenhouse located in Arena, Wis. were treated with NALPE-2 (50 mg/L) using a hand pump spray bottle. Five tomato clusters each with 3-5 fruit in the early ripening stages (breaker) were used. The clusters were sprayed such that little overspray left the immediate area as to not contaminate other vines. Ambient conditions in the greenhouse at the time of application were about 75° F. and 70% relative humidity, full sun. Drying time was approximately 0.5 hr. Fruit were harvested after 7 days and transported to the laboratory for visual color comparison.

The subject of assay [3] is radish cotyledons. Description: Radish cotyledon bioassay (kinetin-induced expansion growth and chlorophyll content). The class given is in vivo, Raphanus sativus L. cv. Cherry-Belle. Conditions: for Type of hormone-like activity: radish cotyledon bioassay. The protocol:
Radish cotyledon bioassay. The radish cotyledon bioassay was essentially as described by Letham D S (1971) Physiologia Plantarum 25:391-396, which is herein incorporated by reference in its entirety. Seeds of Raphanus sativus L. cv. Cherry-Belle were germinated in darkness at 25° C. for 36 hours in Petri dishes containing filter paper wetted with distilled water. The smaller of the two cotyledons was excised, the fresh weight determined, and 10 cotyledons placed adaxial side down on filter paper in Petri dishes containing potassium phosphate buffer (2 mM, pH 6.0) with kinetin (0.2 mg/L, added to simulate natural growing conditions) and the compounds to be tested at 20 mg/L. Cotyledons were then incubated under continuous illumination up to 72 hours at 25° C. and the increase in fresh weight determined. Chlorophyll content was determined after extraction of tissue into 80% ethanol (containing butylated hydroxytoluene, 10 mg/L) and quantified spectrophotometrically using the equations Chl a=(13.95A663)−(6.88A647) and Chl b=(24.96A652)−(7.32A663) as described by Lichtenthal H K (1987) Methods in Enzymology 148:350-382, which is herein incorporated by reference in its entirety.

The mark [4] stands for this setting: NALPE-2 50 mg/L applied 14 days prior to harvest, Bolivian Rainbow Peppers.
Setting [5] is: NALPE-2 50 mg/L applied 7 days prior to harvest, tomatoes.
[6] abbreviates: NAPE-2 20 mg/L, kinetin 0.2 mg/l, 72 hours.

With “N-acetyl lysophosphatidylethanolamine [NALPE-2]”, in the assay with radish cotyledons [1] (NALPE-2 0.2 mg/l), the “Change in fresh weight, % of control” value is recorded as 92 % of control and the “Change in fresh weight” value is 13.68 ± 4.79 mg. In addition, in the assay with radish cotyledons [1] (NALPE-2 200 mg/l), the “Change in fresh weight, % of control” value was 58 % of control and the “Change in fresh weight” value was 8.64 ± 5.46 mg. In the assay with Bolivian Rainbow Peppers (setting [4]), the “Color Stage Blue” value stood at 22%, the “Color Stage Orange” value worked out at 20%, the “Color Stage Purple” value is on record as 19% and the “Color Stage Red” value is on record as 32%. Further, in the assay on Bolivian Rainbow Peppers (setting [4]), the “Color Stage Yellow” value is listed as 6%. In addition, the “Effect on color development in hot peppers” value with Bolivian Rainbow Peppers (Table 5) is reported as “accelerated color development”. This substance also came in with an Anthocyanin in the assay on radish hypocotyls (NALPE-2 15 mg/l, kinetin 0.2 mg/l, 25° C., 28 hours, n = 4) of 2.637 ± 0.005 μg/hypocotyl. Also, the “Anthocyanin, % of control” value in the assay on radish hypocotyls (NALPE-2 15 mg/l, kinetin 0.2 mg/l, 28 hours) is listed as 125 % of control. The “Effect on anthocyanin pigment in radish hypocotyls” value with radish hypocotyls (summary of Table 3) is “enhanced the amount of anthocyanin pigment”. In assay [2] (setting [5]), the “Color Stage Light Red” value is given as 17%; the “Color Stage Others (breaker, turning, and pink stage)” value is recorded as 16%; the “Color Stage Red” value is listed as 67%. Further, the “Effect on color development in tomatoes” value in assay [2] (text summary of Table 4) is reported as “accelerated color development”. For the same substance, the “Change in fresh weight, % of control” value in the assay with radish cotyledons [3] (NALPE-2 20 mg/l, kinetin 0.2 mg/l, 72 hours) is given as 66 % of control. Moreover, the “Change in fresh weight” value with radish cotyledons [3] (NALPE-2 20 mg/l, kinetin 0.2 mg/l, 72 hours, n = 9) was found to be 9.88 ± 4.93 mg. Further, the “Effect on expansion growth of radish cotyledons” value in the assay on radish cotyledons [3] (Table 2, dependent upon concentration) is on record as “inhibitory activity”. The “Type of hormone-like activity” value in the assay with radish cotyledons [3] was “ethylene-like activity”.

In the case of “N-acetylphosphatidylethanolamine [NAPE-2]”, in the assay with radish cotyledons [3], the “Effect on total amount of chlorophyll during radish cotyledon expansion” value was “did not change the total amount of chlorophyll” and the “Type of hormone-like activity” value is reported as “cytokinin-like activity”. Further, the “Change in fresh weight” value with radish cotyledons [3] (NAPE-2 20 mg/L, kinetin 0.2 mg/l, 2 mM PB pH 6.0, 25° C., 72 hours, n = 3) was 18.90 ± 1.74 mg and 21.37 ± 1.09 mg and 22.52 ± 3.42 mg. In addition, in the assay on radish cotyledons [3] (setting [6]), the “Change in fresh weight, % of control” value is 110 % of control and 108 % of control; the Chlorophyll a/b was found to be 1.82. In addition, the “Increase of cotyledon fresh weight” value in the assay on radish cotyledons [3] (summary of Table 1) was “about 10%”.
